{"source": "patent US7235262B2", "about": "“Use of bioactive fraction from cow urine distillate (‘Go-mutra’) as a bio-enhancer of anti-infective, anti-cancer agents and nutrients” (Council of Scientific and Industrial Research, priority 2000, dated 2007)", "key": {"[1]": {"tested_on": "Escherichia coli", "assay": "Broth assay for bio-enhancement of antibiotic killing, Gram-negative bacterium", "settings": "cow urine distillate 1 μl/mL", "procedure": "(§1) For this, the cells are treated with compound for 4 to 8 hours and then washed free of it by centrifugation and washing in sterile water. This was followed by treatment with antibiotic as in steps b to d.\n(§2) In the next step of elucidation of the enhancer action, the applicants experimented with the killing activities of different antibiotics against the bacteria singly and in combination with the test component (cow urine distillate) following the method described above. […] In all the experiments the cow urine distillate concentration was kept at 1 μl/mL unless it is specifically mentioned."}, "[2]": {"tested_on": "Bacillus subtilis", "assay": "Broth assay for bio-enhancement of antibiotic killing, Gram-positive bacterium", "settings": "cow urine distillate 1 μl/mL", "procedure": "as §1, §2"}, "[3]": {"tested_on": "Mycobacterium smegmatis", "assay": "Broth assay for bio-enhancement of antibiotic killing, Mycobacterium smegmatis", "settings": "antibiotic 0.5 μg/ml; cow urine distillate 1 μl/mL", "procedure": "as §1, §2"}, "[4]": {"tested_on": "fungal strains", "settings": "active fraction Gm-IV, where present, at 10 μg/ml", "procedure": "(§3) The methodology followed by us for this screening included specifically designed bioassays as described below.\nas §1\n(§4) The Concentration of the Active Fraction is Kept at 10 μg/ml."}, "[5]": {"tested_on": "fungal strains", "assay": "organism not typed", "settings": "read-out: Minimum inhibitory Concentration (MIC)", "procedure": "as §3, §1, §4"}, "[6]": {"tested_on": "oxyR mutant of bacterium Escherichia coli", "assay_type": "cell-based"}, "[7]": {"assay": "Bioavailability test through biological membrane (U-tube)", "assay_type": "in vitro ADME, goat", "settings": "Rifampicin 1 mg/ml, Fraction Gm-IV (where present) 1.0 μg/ml"}, "[8]": {"tested_on": "MCF-7 (Breast cancer cell line)", "assay_type": "cell-based", "settings": "for Final titre of viable cells upon treatment with taxol alone / Final titre of viable cells upon treatment with taxol + cow urine distillate: MCF-7, count after 36 hours; for Final titre of viable cells upon treatment with taxol + cow urine distillate: cow urine distillate 1 μl/ml"}}, "note": "Where two headings read alike, the source gives them in different places."}
{"smiles": "CC1(C)S[C@@H]2[C@H](NC(=O)[C@H](N)c3ccccc3)C(=O)N2[C@H]1C(=O)O", "note": "[Ampicillin]", "values": [{"measurement": "Fold enhancement in antibiotic activity", "setting": "[1]; antibiotic 4 μg/ml", "result": 1.85}, {"measurement": "Fold enhancement in antibiotic activity", "setting": "[1]; antibiotic 6 μg/ml", "result": 4.50}, {"measurement": "Fold enhancement in antibiotic activity", "setting": "[1]; antibiotic 8 μg/ml", "result": 5.00}, {"measurement": "Fold enhancement in antibiotic activity", "setting": "[2]; antibiotic 0.1 μg/ml", "result": 3.3}, {"measurement": "Fold enhancement in antibiotic activity", "setting": "[2]; antibiotic 0.5 μg/ml", "result": 3.0}, {"measurement": "Fold enhancement in antibiotic activity", "setting": "[3]", "result": 11.6}]}
{"smiles": "Clc1ccccc1C(c1ccccc1)(c1ccccc1)n1ccnc1", "note": "[Clotrimazol]", "values": [{"measurement": "Fold enhancement", "setting": "[4]", "result": 0.0}, {"measurement": "MIC", "setting": "[5]", "result": 4.4, "unit": "µg/mL"}]}
{"smiles": "NNC(=O)c1ccncc1", "note": "[Isoniazid]", "values": [{"measurement": "enhancement action of the distillate for INH", "setting": "[6]", "result": "enhancement action"}]}
{"smiles": "CO[C@H]1/C=C/O[C@@]2(C)Oc3c(C)c(O)c4c(O)c(c(/C=N/N5CCN(C)CC5)c(O)c4c3C2=O)NC(=O)/C(C)=C\\C=C\\[C@H](C)[C@H](O)[C@@H](C)[C@@H](O)[C@@H](C)[C@H](OC(C)=O)[C@@H]1C", "note": "[Rifampicin]", "values": [{"measurement": "OD measured as Absorbance across the membrane in receiving tube", "setting": "[7]; A340, after 1 hr", "result": 0.0097}, {"measurement": "OD measured as Absorbance across the membrane in receiving tube", "setting": "[7]; A340, after 2 hr", "result": 0.0214}, {"measurement": "OD measured as Absorbance across the membrane in receiving tube", "setting": "[7]; A340, after 4 hr", "result": 0.0771}, {"measurement": "OD measured as Absorbance across the membrane in receiving tube", "setting": "[7]; A340, after 5 hr", "result": 0.0858}, {"measurement": "OD measured as Absorbance across the membrane in receiving tube", "setting": "[7]; A340, after 6 hr", "result": 0.0910}, {"measurement": "OD measured as Absorbance across the membrane in receiving tube", "setting": "[7]; A475, after 1 hr", "result": 0.0177}, {"measurement": "OD measured as Absorbance across the membrane in receiving tube", "setting": "[7]; A475, after 2 hr", "result": 0.0284}, {"measurement": "OD measured as Absorbance across the membrane in receiving tube", "setting": "[7]; A475, after 3 hr", "result": 0.0309}, {"measurement": "OD measured as Absorbance across the membrane in receiving tube", "setting": "[7]; A475, after 4 hr", "result": 0.0412}, {"measurement": "OD measured as Absorbance across the membrane in receiving tube", "setting": "[7]; A475, after 5 hr", "result": 0.0484}, {"measurement": "OD measured as Absorbance across the membrane in receiving tube", "setting": "[7]; A475, after 6 hr", "result": 0.0496}]}
{"smiles": "CC(=O)O[C@H]1C(=O)[C@@]2(C)[C@H]([C@H](OC(=O)c3ccccc3)[C@]3(O)C[C@H](OC(=O)[C@H](O)[C@@H](NC(=O)c4ccccc4)c4ccccc4)C(C)=C1C3(C)C)[C@]1(OC(C)=O)CO[C@@H]1C[C@@H]2O", "note": "[Taxol, Paclitaxel]", "values": [{"measurement": "Final titre of viable cells upon treatment with taxol alone", "setting": "[8]; Taxol 0.001 μg/ml", "result": "0.059 × 10^6"}, {"measurement": "Final titre of viable cells upon treatment with taxol + cow urine distillate", "setting": "[8]; Taxol 0.001 μg/ml", "result": "0.039 × 10^6"}, {"measurement": "Final titre of viable cells upon treatment with taxol alone", "setting": "[8]; Taxol 0.005 μg/ml", "result": "0.042 × 10^6"}, {"measurement": "Final titre of viable cells upon treatment with taxol + cow urine distillate", "setting": "[8]; Taxol 0.005 μg/ml", "result": "0.032 × 10^6"}, {"measurement": "Final titre of viable cells upon treatment with taxol alone", "setting": "[8]; Taxol 0.01 μg/ml", "result": "0.036 × 10^6"}, {"measurement": "Final titre of viable cells upon treatment with taxol + cow urine distillate", "setting": "[8]; Taxol 0.01 μg/ml", "result": "0.012 × 10^6"}, {"measurement": "killing action of Taxol with cow urine distillate", "setting": "[8]; cancerous cell line MCF-7", "result": "increased"}, {"measurement": "enhancement in the activity of taxol by the distillate", "setting": "[8]; distillate at 1 μl/ml", "result": "at least 5 folds"}]}
